Data taken from patent publication US10167262B2, “Herbicidal substituted 3-arylpyrazoles” (FMC CORPORATION, priority 2014, dated 2019).

Legend:
Experiment in all cases: Test E pre-/postemergence greenhouse test, plant response rating 0-100
Type in all cases: in vivo
[1] = system: wild poinsettia (Euphorbia heterophylla); details: scale 0 to 100; for Poinsettia, Wild plant response rating: Preemergence
Summary of the method: (§1)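 Rated visually against controls 14-21 days after treatment on a 0-100 scale (100 = complete control). Pre- and postemergence sprays used a non-phytotoxic solvent mixture with surfactant. Preemergence seeds were in silt loam; postemergence plants were in peat-based medium at the 1- to 4-leaf stage (2-18 cm).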

[2] = system: waterhemp (common waterhemp, Amaranthus rudis); details: scale 0 to 100; for Waterhemp plant response rating: Preemergence
Summary of the method: as §1

[3] = system: barnyardgrass (Echinochloa crus-galli); details: scale 0 to 100; for Barnyardgrass plant response rating: Preemergence
Summary of the method: as §1

soybean (Glycine max) = details: scale 0 to 100; for Soybean plant response rating: Preemergence
Summary of the method: as §1

[4] = system: sandbur (southern sandbur, Cenchrus echinatus); details: scale 0 to 100; for Sandbur plant response rating: Preemergence
Summary of the method: as §1

[5] = system: palmer pigweed (Amaranthus palmeri); details: scale 0 to 100; for Pigweed, Palmer plant response rating: Preemergence
Summary of the method: as §1

[6] = system: hairy beggarticks (Bidens pilosa); details: scale 0 to 100; for Beggarticks plant response rating: Preemergence
Summary of the method: as §1

[7] = system: Brazilian crabgrass (Digitaria horizontalis); details: Digitaria horizontalis, post-emergence, Postemergence, scale 0 to 100, read-out: Plant response rating, Crabgrass, Brazil
Summary of the method: as §1

[8] = system: fall panicum (Panicum dichotomiflorum); details: scale 0 to 100; for Panicum, Fall plant response rating: Preemergence
Summary of the method: as §1

[9] = system: arrowleaf sida (Sida rhombifolia); details: for Arrowleaf Sida plant response rating: Preemergence
Summary of the method: as §1

corn (Zea mays) = details: scale 0 to 100; for Corn plant response rating: Preemergence
Summary of the method: as §1

SMILES: COCC(=O)n1cc(C(=O)c2ccccc2)c(-c2cc(Cl)cc(Cl)c2)n1 [Compound 16, 1-[4-benzoyl-3-(3,5-dichlorophenyl)-1H-pyrazol-1-yl]-2-methoxyethanone]
- pest or weed control at 31 g/ha ([1]; Euphorbia heterophylla, post-emergence, Postemergence, 31 g ai/ha, read-out: Plant response rating, Poinsettia, Wild): 0%
- pest or weed control at 62 g/ha ([1]; Euphorbia heterophylla, post-emergence, Postemergence, 62 g ai/ha, read-out: Plant response rating, Poinsettia, Wild): 0%
- pest or weed control at 125 g/ha ([1]; Euphorbia heterophylla, post-emergence, Postemergence, 125 g ai/ha, read-out: Plant response rating, Poinsettia, Wild): 0%
- pest or weed control at 250 g/ha ([1]; Euphorbia heterophylla, post-emergence, Postemergence, 250 g ai/ha, read-out: Plant response rating, Poinsettia, Wild): 0%
- pest or weed control at 500 g/ha ([1]; Euphorbia heterophylla, post-emergence, Postemergence, 500 g ai/ha, read-out: Plant response rating, Poinsettia, Wild): 0%
- Poinsettia, Wild plant response rating ([1]; 31 g ai/ha): 0
- Poinsettia, Wild plant response rating ([1]; 62 g ai/ha): 0
- Poinsettia, Wild plant response rating ([1]; 125 g ai/ha): 0
- Poinsettia, Wild plant response rating ([1]; 250 g ai/ha): 0
- Poinsettia, Wild plant response rating ([1]; 500 g ai/ha): 0
- pest or weed control at 31 g/ha ([2]; Amaranthus tuberculatus, post-emergence, Postemergence, 31 g ai/ha): 95%
- pest or weed control at 62 g/ha ([2]; Amaranthus tuberculatus, post-emergence, Postemergence, 62 g ai/ha): 98%
- pest or weed control at 125 g/ha ([2]; Amaranthus tuberculatus, post-emergence, Postemergence, 125 g ai/ha): 98%
- pest or weed control at 250 g/ha ([2]; Amaranthus tuberculatus, post-emergence, Postemergence, 250 g ai/ha): 98%
- pest or weed control at 500 g/ha ([2]; Amaranthus tuberculatus, post-emergence, Postemergence, 500 g ai/ha): 100%
- Waterhemp plant response rating ([2]; 31 g ai/ha): 0
- Waterhemp plant response rating ([2]; 62 g ai/ha): 30
- Waterhemp plant response rating ([2]; 125 g ai/ha): 70
- Waterhemp plant response rating ([2]; 250 g ai/ha): 100
- Waterhemp plant response rating ([2]; 500 g ai/ha): 100
- pest or weed control at 31 g/ha ([3]; Echinochloa crus-galli, post-emergence, Postemergence, 31 g ai/ha): 0%
- pest or weed control at 62 g/ha ([3]; Echinochloa crus-galli, post-emergence, Postemergence, 62 g ai/ha): 0%
- pest or weed control at 125 g/ha ([3]; Echinochloa crus-galli, post-emergence, Postemergence, 125 g ai/ha): 0%
- pest or weed control at 250 g/ha ([3]; Echinochloa crus-galli, post-emergence, Postemergence, 250 g ai/ha): 0%
- pest or weed control at 500 g/ha ([3]; Echinochloa crus-galli, post-emergence, Postemergence, 500 g ai/ha): 0%
- Barnyardgrass plant response rating ([3]; 31 g ai/ha): 0
- Barnyardgrass plant response rating ([3]; 62 g ai/ha): 0
- Barnyardgrass plant response rating ([3]; 125 g ai/ha): 0
- Barnyardgrass plant response rating ([3]; 250 g ai/ha): 0
- Barnyardgrass plant response rating ([3]; 500 g ai/ha): 0
- plant injury at 31 g/ha (soybean (Glycine max); Glycine max, post-emergence, Postemergence, 31 g ai/ha): 0%
- plant injury at 62 g/ha (soybean (Glycine max); Glycine max, post-emergence, Postemergence, 62 g ai/ha): 0%
- plant injury at 125 g/ha (soybean (Glycine max); Glycine max, post-emergence, Postemergence, 125 g ai/ha): 0%
- plant injury at 250 g/ha (soybean (Glycine max); Glycine max, post-emergence, Postemergence, 250 g ai/ha): 0%
- plant injury at 500 g/ha (soybean (Glycine max); Glycine max, post-emergence, Postemergence, 500 g ai/ha): 0%
- Soybean plant response rating (soybean (Glycine max); 31 g ai/ha): 0
- Soybean plant response rating (soybean (Glycine max); 62 g ai/ha): 0
- Soybean plant response rating (soybean (Glycine max); 125 g ai/ha): 0
- Soybean plant response rating (soybean (Glycine max); 250 g ai/ha): 0
- Soybean plant response rating (soybean (Glycine max); 500 g ai/ha): 0
- pest or weed control at 31 g/ha ([4]; Cenchrus echinatus, post-emergence, Postemergence, 31 g ai/ha): 0%
- pest or weed control at 62 g/ha ([4]; Cenchrus echinatus, post-emergence, Postemergence, 62 g ai/ha): 0%
- pest or weed control at 125 g/ha ([4]; Cenchrus echinatus, post-emergence, Postemergence, 125 g ai/ha): 0%
- pest or weed control at 250 g/ha ([4]; Cenchrus echinatus, post-emergence, Postemergence, 250 g ai/ha): 0%
- pest or weed control at 500 g/ha ([4]; Cenchrus echinatus, post-emergence, Postemergence, 500 g ai/ha): 0%
- Sandbur plant response rating ([4]; 31 g ai/ha): 0
- Sandbur plant response rating ([4]; 62 g ai/ha): 0
- Sandbur plant response rating ([4]; 125 g ai/ha): 0
- Sandbur plant response rating ([4]; 250 g ai/ha): 0
- Sandbur plant response rating ([4]; 500 g ai/ha): 0
- pest or weed control at 31 g/ha ([5]; Amaranthus palmeri, post-emergence, Postemergence, 31 g ai/ha): 70%
- pest or weed control at 62 g/ha ([5]; Amaranthus palmeri, post-emergence, Postemergence, 62 g ai/ha): 70%
- pest or weed control at 125 g/ha ([5]; Amaranthus palmeri, post-emergence, Postemergence, 125 g ai/ha): 90%
- pest or weed control at 250 g/ha ([5]; Amaranthus palmeri, post-emergence, Postemergence, 250 g ai/ha): 90%
- pest or weed control at 500 g/ha ([5]; Amaranthus palmeri, post-emergence, Postemergence, 500 g ai/ha): 100%
- Pigweed, Palmer plant response rating ([5]; 31 g ai/ha): 0
- Pigweed, Palmer plant response rating ([5]; 62 g ai/ha): 0
- Pigweed, Palmer plant response rating ([5]; 125 g ai/ha): 0
- Pigweed, Palmer plant response rating ([5]; 250 g ai/ha): 0
- Pigweed, Palmer plant response rating ([5]; 500 g ai/ha): 0
- pest or weed control at 31 g/ha ([6]; Bidens pilosa, post-emergence, Postemergence, 31 g ai/ha): 95%
- pest or weed control at 62 g/ha ([6]; Bidens pilosa, post-emergence, Postemergence, 62 g ai/ha): 100%
- pest or weed control at 125 g/ha ([6]; Bidens pilosa, post-emergence, Postemergence, 125 g ai/ha): 98%
- pest or weed control at 250 g/ha ([6]; Bidens pilosa, post-emergence, Postemergence, 250 g ai/ha): 98%
- pest or weed control at 500 g/ha ([6]; Bidens pilosa, post-emergence, Postemergence, 500 g ai/ha): 98%
- Beggarticks plant response rating ([6]; 31 g ai/ha): 0
- Beggarticks plant response rating ([6]; 62 g ai/ha): 0
- Beggarticks plant response rating ([6]; 125 g ai/ha): 25
- Beggarticks plant response rating ([6]; 250 g ai/ha): 50
- Beggarticks plant response rating ([6]; 500 g ai/ha): 65
- pest or weed control at 31 g/ha ([7]; 31 g ai/ha): 0%
- pest or weed control at 62 g/ha ([7]; 62 g ai/ha): 0%
- pest or weed control at 125 g/ha ([7]; 125 g ai/ha): 0%
- pest or weed control at 250 g/ha ([7]; 250 g ai/ha): 0%
- pest or weed control at 500 g/ha ([7]; 500 g ai/ha): 0%
- pest or weed control at 31 g/ha ([8]; Panicum dichotomiflorum, post-emergence, Postemergence, 31 g ai/ha): 0%
- pest or weed control at 62 g/ha ([8]; Panicum dichotomiflorum, post-emergence, Postemergence, 62 g ai/ha): 0%
- pest or weed control at 125 g/ha ([8]; Panicum dichotomiflorum, post-emergence, Postemergence, 125 g ai/ha): 60%
- pest or weed control at 250 g/ha ([8]; Panicum dichotomiflorum, post-emergence, Postemergence, 250 g ai/ha): 30%
- pest or weed control at 500 g/ha ([8]; Panicum dichotomiflorum, post-emergence, Postemergence, 500 g ai/ha): 65%
- Panicum, Fall plant response rating ([8]; 31 g ai/ha): 0
- Panicum, Fall plant response rating ([8]; 62 g ai/ha): 0
- Panicum, Fall plant response rating ([8]; 125 g ai/ha): 0
- Panicum, Fall plant response rating ([8]; 250 g ai/ha): 0
- Panicum, Fall plant response rating ([8]; 500 g ai/ha): 0
- Arrowleaf Sida plant response rating ([9]; 31 g ai/ha, scale 0 to 100): 25
- Arrowleaf Sida plant response rating ([9]; 62 g ai/ha, scale 0 to 100): 35
- Arrowleaf Sida plant response rating ([9]; 125 g ai/ha, scale 0 to 100): 90
- Arrowleaf Sida plant response rating ([9]; 250 g ai/ha, scale 0 to 100): 95
- Arrowleaf Sida plant response rating ([9]; 500 g ai/ha, scale 0 to 100): 100
- pest or weed control at 31 g/ha ([9]; Sida rhombifolia, post-emergence, Postemergence, 31 g ai/ha, scale 0 to 100): 95%
- pest or weed control at 62 g/ha ([9]; Sida rhombifolia, post-emergence, Postemergence, 62 g ai/ha, scale 0 to 100): 98%
- pest or weed control at 125 g/ha ([9]; Sida rhombifolia, post-emergence, Postemergence, 125 g ai/ha, scale 0 to 100): 98%
- pest or weed control at 250 g/ha ([9]; Sida rhombifolia, post-emergence, Postemergence, 250 g ai/ha, scale 0 to 100): 98%
- pest or weed control at 500 g/ha ([9]; Sida rhombifolia, post-emergence, Postemergence, 500 g ai/ha, scale 0 to 100 (0 no effect, 100 complete control)): 100%
- Corn plant response rating (corn (Zea mays); 31 g ai/ha): 0
- Corn plant response rating (corn (Zea mays); 62 g ai/ha): 0
- Corn plant response rating (corn (Zea mays); 125 g ai/ha): 0
- Corn plant response rating (corn (Zea mays); 250 g ai/ha): 0
- Corn plant response rating (corn (Zea mays); 500 g ai/ha): 0
- Corn plant response rating (crop injury, 0 = no effect, 100 = complete kill) at 31 g/ha (corn (Zea mays); Zea mays, post-emergence, Postemergence, 31 g ai/ha): 0%
- Corn plant response rating (crop injury, 0 = no effect, 100 = complete kill) at 62 g/ha (corn (Zea mays); Zea mays, post-emergence, Postemergence, 62 g ai/ha): 0%
- Corn plant response rating (crop injury, 0 = no effect, 100 = complete kill) at 125 g/ha (corn (Zea mays); Zea mays, post-emergence, Postemergence, 125 g ai/ha): 0%
- Corn plant response rating (crop injury, 0 = no effect, 100 = complete kill) at 250 g/ha (corn (Zea mays); Zea mays, post-emergence, Postemergence, 250 g ai/ha): 0%
- Corn plant response rating (crop injury, 0 = no effect, 100 = complete kill) at 500 g/ha (corn (Zea mays); Zea mays, post-emergence, Postemergence, 500 g ai/ha): 0%
